{
  "source": "paper PMC7812938",
  "about": "“Dehydrobufotenin extracted from the Amazonian toad Rhinella marina (Anura: Bufonidae) as a prototype molecule for the development of antiplasmodial drugs” (The Journal of Venomous Animals and Toxins Including …, 2021)",
  "key": {"[1]": {"system": "P. falciparum W2 strain (chloroquine resistant)", "test": "In vitro antiplasmodial activity", "type": "cell-based, Plasmodium falciparum", "conditions": "read-out: IC50 ± SD (drug concentration that reduced parasite viability in 50%)", "source_text": "P. falciparum continuous culture was maintained as previously described with minor modifications. […] The parasites at early stages were synchronized at ring stage by sorbitol treatment. Initial parasitemia was adjusted to 0.5% with 2% hematocrit in all experiments.\nIn vitro antiplasmodial activity of the bufadienolides (compounds dehydrobufotenin, marinobufotoxin, marinobufagin and bufalin) was done in 96 well plates. The growth inhibition of intraerythrocytic forms and parasite morphology in culture was assessed by microscopic observation of the Giemsa-stained thin blood films. Ring stage parasites (0.5% parasitemia and 2% hematocrit) were added to each well of 96-well microculture plates. The compounds (dehydrobufotenin, marinobufotoxin, marinobufagin and bufalin) were dissolved in DMSO and diluted to concentrations ranging from 0.78 to 100 μg/mL using complete medium and stored a 4 °C. After incubation at 37 °C for 48 hours, P. falciparum growth inhibition was assessed in Giemsa-stained smears by observing 5,000 erythrocytes per 1 thin blood film in triplicate. The culture medium was replaced with fresh medium with or without test samples/control drugs. […] All experiments were performed in triplicate.\n(§1) The coefficients of regression of these curves were calculated using the method of least squares. The LD50 were determined based on the equation of the curve obtained by plotting the % of cellular death versus the concentration of compound (GraphPad Prism Software, version 5.0 for Windows, San Diego, California, USA). The average IC50 and LD50 were compared using ANOVA. Statistical significance was defined at the 5% level (P<0.05)."}, "[2]": {"system": "WI-26VA4 human pulmonary fibroblast cells", "test": "In vitro cytotoxicity, MTT assay", "type": "cell-based", "conditions": "for SI (selectivity index): SI = LD50 Cell / IC50 P. falciparum, WI-26VA4 vs W2; for LD50 ± SD (lethal drug concentration that reduced WI-26VA4 cells viability in 50%): WI-26VA4 human pulmonary fibroblast cells, MTT, 24 hours, mean and SD of triplicate experiments", "procedure": "The cells were washed with culture medium, trypsinized, distributed in a flat-bottomed 96-well plate (5×10^3 cells/well), and incubated for 18 hours at 37 °C for cell adherence. The compounds (20 μL) were diluted in different concentrations ranging from 0.2 - 200 μg/mL and incubated with the cells for 24 hours in a 5% CO2 atmosphere at 37 °C.\nA 3-(4,5-dimethylthiazol-2-yl)-2,5-diphenyltetrazolium bromide (MTT) solution (5 mg/mL; 20 μL/well) was added to evaluate mitochondrial viability; after a further 3 hours incubation, the supernatants were carefully removed, 100 μL of DMSO was added to each well, and the reactions were mixed to solubilize the formazan crystals. […] The cell viability was expressed as a percentage of the control absorbance in the untreated cells after subtracting the appropriate background.\nA selectivity index (SI) corresponding to the ratio between the cytotoxic and antiplasmodial activities of each compound tested. The values greater than 10 were considered indicative of lack of toxicity, whereas the substances with values below 10 were considered toxic. The SI index was calculated as follow:\nSI=LD50 Cell/IC50 P.falciparum\nas §1"}, "[3]": {"conditions": "Plasmodium falciparum, W2, 48 h"}},
  "note": "Read-outs that look alike come from different tables or passages of the source.",
  "data": [
    {"smiles": "C[C@]12CC[C@H](O)C[C@H]1CC[C@@H]1[C@@H]2CC[C@]2(C)[C@@H](c3ccc(=O)oc3)CC[C@]12O", "note": "[Bufalin]", "values": [
      {"measurement": "IC50", "setting": "[1]; P. falciparum W2 (chloroquine-resistant), 48 hours, Giemsa-stained smears, mean and SD of triplicate experiments", "value": "3.44 ± 0.43", "unit": "µM"},
      {"measurement": "SI (selectivity index)", "setting": "[2]", "value": 7.52},
      {"measurement": "LD50 ± SD (lethal drug concentration that reduced WI-26VA4 cells viability in 50%)", "setting": "[2]", "value": "25.9 ± 7.04", "unit": "µM"},
      {"measurement": "LD50 ± SD (lethal drug concentration that reduced WI-26VA4 cells viability in 50%)", "setting": "[2]; listed as bufalin", "value": 25.9, "unit": "µM"}
    ]},
    {"smiles": "CCN(CC)CCCC(C)Nc1ccnc2cc(Cl)ccc12", "note": "(stereo not drawn) [Chloroquine (CQ), Chloroquine, reference compound]", "values": [
      {"measurement": "IC50", "setting": "[1]; [3]", "value": "1.04 ± 0.21", "unit": "µM"}
    ]},
    {"smiles": "C[N+]1(C)CCc2c[nH]c3ccc(O)c1c23", "note": "[Dehydrobufotenine, Dehydrobufotenin]", "values": [
      {"measurement": "IC50", "setting": "[1]; [3]", "value": "19.1 ± 0.2", "unit": "µM"},
      {"measurement": "SI (selectivity index)", "setting": "[2]", "value": 12.33},
      {"measurement": "SI (selectivity index)", "setting": "[2]; listed as dehydrobufotenin", "value": "> 10"},
      {"measurement": "LD50 ± SD (lethal drug concentration that reduced WI-26VA4 cells viability in 50%)", "setting": "[2]", "value": "235.76 ± 4.03", "unit": "µM"},
      {"measurement": "LD50 ± SD (lethal drug concentration that reduced WI-26VA4 cells viability in 50%)", "setting": "[2]; listed as dehydrobufotenin", "value": 235.76, "unit": "µM"}
    ]},
    {"smiles": "CC12CCC(O)CC1(O)CCC1C2CCC2(C)C(c3ccc(=O)oc3)CC3OC312", "note": "(stereo not drawn) [Marinobufagin]", "values": [
      {"measurement": "IC50", "setting": "[1]; [3]", "value": "3.89 ± 0.42", "unit": "µM"},
      {"measurement": "SI (selectivity index)", "setting": "[2]", "value": 0.78},
      {"measurement": "LD50 ± SD (lethal drug concentration that reduced WI-26VA4 cells viability in 50%)", "setting": "[2]", "value": "3.04 ± 0.25", "unit": "µM"},
      {"measurement": "LD50 ± SD (lethal drug concentration that reduced WI-26VA4 cells viability in 50%)", "setting": "[2]; listed as marinobufagin", "value": 3.04, "unit": "µM"}
    ]},
    {"smiles": "CC12CCC(OC(=O)CCCCCCC(=O)NC(CCCNC(=N)N)C(=O)O)CC1(O)CCC1C2CCC2(C)C(c3ccc(=O)oc3)CC3OC312", "note": "(stereo not drawn) [Marinobufotoxin, 3-(N-suberoylargininyl) marinobufagin]", "values": [
      {"measurement": "IC50", "setting": "[1]; [3]", "value": "5.31 ± 0.25", "unit": "µM"},
      {"measurement": "SI (selectivity index)", "setting": "[2]", "value": 1.67},
      {"measurement": "LD50 ± SD (lethal drug concentration that reduced WI-26VA4 cells viability in 50%)", "setting": "[2]", "value": "8.89 ± 2.66", "unit": "µM"},
      {"measurement": "LD50 ± SD (lethal drug concentration that reduced WI-26VA4 cells viability in 50%)", "setting": "[2]; listed as marinobufotoxin", "value": 8.89, "unit": "µM"}
    ]}
  ]
}
